Measured values reported in patent US8175860B2, “Method of inhibiting the growth of Helicobacter pylori” (priority 2009, dated 2012).
Where “and” joins values, the source holds several entries; their conditions need not be identical. Equal values may be shown once. Read-outs that look alike come from different tables or passages of the source.

Columns and labels:
Format in all cases: biochemical
[1] = target: MtSK (M. tuberculosis shikimate kinase) (Mycobacterium tuberculosis, UniProt P9WPY3); test: Shikimate kinase inhibitor activity assay (pyruvate kinase/lactate dehydrogenase coupled), MtSK; conditions: for inhibition mode with respect to shikimate (SKM): ATP fixed at 2.5 mM, shikimate varied; for inhibition mode with respect to ATP: shikimate fixed at 1.6 mM, ATP varied; for inhibitory effect against shikimate kinase (in words): preliminary screening at 50 μM
[2] = target: HpSK (H. pylori shikimate kinase) (Helicobacter pylori, UniProt P56073); test: Shikimate kinase inhibitor activity assay (pyruvate kinase/lactate dehydrogenase coupled), HpSK; conditions: for inhibition mode with respect to shikimate (SKM): ATP fixed at 2.5 mM, shikimate varied; for inhibition mode with respect to ATP: shikimate fixed at 1.6 mM, ATP varied; for inhibitory effect against shikimate kinase (in words): preliminary screening at 50 μM
Procedure: The shikimate kinase activity was determined by coupling the release of ADP from the shikimate kinase-catalyzed reaction to the oxidation of NADH using pyruvate kinase (EC 2.7.1.40) and lactate dehydrogenase (EC 1.1.1.27) as coupling enzymes. Shikimate-dependent oxidation of NADH was monitored by the decrease in A340 (ε=6,200 M^−1 cm^−1). The assay was carried out at 25° C. in a mixture containing 100 mM Tris/HCl/KOH buffer, pH 7.5, 50 mM KCl, 5 mM MgCl2, 1.6 mM shikimic acid, 2.5 mM ATP, 1 mM phosphoenolpyruvate, 0.1 mM NADH, 2.5 units of pyruvate kinase/ml, and 2.7 units of lactate dehydrogenase/ml. All assays were conducted in a 96-well microplate spectrophotometer (FLUOstar OPTIMA, BMG LABTECH). Kinetic parameters were obtained using nonlinear regression fitting to the Michaelis-Menten equation. The apparent Km values for each substrate were determined as follows: for ATP the shikimate concentration ([shikimate]) was maintained at 1.6 mM and the [ATP] varied in the range from 0.001 mM to 2.5 mM; for shikimate the [ATP] was maintained at 2.5 mM and the [shikimate] varied in the range from 0.005 to 1.6 mM. The kinetic data were fit to the appropriate equations using the program GraphPad Prism 4 (Software Inc., USA). The kinetic data for determining the Km values were fit to
using the program GraphPad Prism 4 where v was the initial velocity, Vmax was the maximum velocity, Km was the Michaelis constant and [S] was the substrate (shikimate or ATP) concentration. The IC50 value for HpSK inhibition by inhibitors was determined by fitting data to
where v was the initial velocity, Vmax was the maximum velocity, Vmin was the minimum velocity, [I] was the concentration of compounds and n was the Hill slope.
Using GEMDOCK virtual docking and pharmarcophore model, several compounds were selected to assay inhibitor activity for verifying the inhibiting effect on HpSK and MtSK enzyme. Based on the procedure of enzyme activity assay, the initial velocities of the enzyme activity were determined in the presence of compounds (50 μM) dissolved in dimethylsulfoxide (DMSO). The final DMSO concentration in all assay mixtures was 5% (v/v). The assay buffer contained 100 mM Tris/HCl/KOH (pH 7.5), 1.6 mM shikimic acid, 2.5 mM ATP. The reaction was initiated by the addition of the diluted HpSK and MtSK enzyme (85 nM). After the preliminary screening, several compounds were identified to inhibit HpSK and MtSK enzyme activity. The initial velocities of the enzyme activity were determined in the presence of various concentrations of these compounds to investigate the dose-dependent inhibition effects. IC50 values of these compounds were obtained by fitting the data to a sigmoid dose-response equation of the GraphPad Prism 4. Afterwards, inhibitor modality was determined by measuring the effects of inhibitor concentrations on the enzymatic activity as a function of substrate concentration. In the inhibition experiment where the ATP concentration was fixed at 2.5 mM, shikimate was a varied substrate (0.06, 0.12, 0.24, 0.48, and 0.96 mM) when the concentration of inhibitor was varied from 0 to 50 μM. In parallel, in the inhibition experiment where the shikimate concentration was fixed at 1.6 mM, ATP was a varied substrate (0.06, 0.12, 0.24, 0.48, and 0.96 mM) when the concentration of inhibitor was varied from 0 to 50 μM.

[3] = target: T1, HpDHQS (dehydroquinate synthase of H. pylori) (Helicobacter pylori, UniProt P56081, I144T); test: HpDHQS inhibition assay (thiobarbiturate assay of residual DAHP); conditions: 1 μM HpDHQS, 37° C., pH 7.0
T1 construct: His tag (inferred from the pQE30 vector and nickel-ion purification); made in house; host or cells: E. coli JM109
T1 sequence (P56081 1-343 I144T): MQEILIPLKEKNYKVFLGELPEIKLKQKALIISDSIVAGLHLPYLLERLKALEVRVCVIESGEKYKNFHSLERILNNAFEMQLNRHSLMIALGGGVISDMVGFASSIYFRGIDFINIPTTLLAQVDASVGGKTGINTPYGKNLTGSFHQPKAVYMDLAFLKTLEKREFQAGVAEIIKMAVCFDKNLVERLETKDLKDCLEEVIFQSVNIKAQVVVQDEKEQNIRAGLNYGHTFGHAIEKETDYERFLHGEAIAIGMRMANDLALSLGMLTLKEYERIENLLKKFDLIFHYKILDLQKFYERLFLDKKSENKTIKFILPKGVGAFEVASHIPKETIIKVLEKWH
Procedure: The level of DAHP was determined by a thiobarbiturate assay method. All assays were conducted at 37° C. in a 200-μl solution containing 20 mM Bis-Tris propane buffer (pH 7.0), 0.5 mM DAHP, 0.02 mM cobalt chloride, 0.02 mM NAD^+ and 1 μM HpDHQS. The residual DAHP was oxidized by per-iodate to produce formylpyruvate, which then reacted with thiobarbiturate to yield a pink adduct, and this chromophore was monitored at A549 after extraction into cyclohexanone.
Compounds were prepared to 100 mM in dimethylsulfoxide (DMSO) solutions. A 5% DMSO control was included for each set of measurements. About 1 μM HpDHQS was added to the mixture containing the compound to be tested with the standard assay mixture. The test compounds were also evaluated whether they interfered the thiobarbiturate assay system in the absence of HpDHQS. The initial velocities were plotted against the inhibitor concentrations to obtain the IC50 by using the following equation A[I]=A[0]×{1−([I]/[I]+IC50)]} wherein A[I] was the enzyme activity with inhibitor concentration [I], and A[0] was the enzyme activity without the inhibitor.

[4] = MtSK, with respect to ATP, read-out: αKi, ATP
[5] = MtSK, with respect to shikimate, read-out: αKi, SKM
[6] = with respect to ATP, read-out: αKi, ATP
[7] = with respect to shikimate, read-out: αKi, SKM

Sequence of MtSK (M. tuberculosis shikimate kinase) (P9WPY3 whole entry): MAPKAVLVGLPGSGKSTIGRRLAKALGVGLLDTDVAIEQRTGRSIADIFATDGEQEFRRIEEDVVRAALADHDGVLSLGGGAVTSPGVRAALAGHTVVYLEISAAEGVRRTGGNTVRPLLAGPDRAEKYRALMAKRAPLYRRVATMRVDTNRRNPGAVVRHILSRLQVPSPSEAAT
Sequence of HpSK (H. pylori shikimate kinase) (P56073 whole entry): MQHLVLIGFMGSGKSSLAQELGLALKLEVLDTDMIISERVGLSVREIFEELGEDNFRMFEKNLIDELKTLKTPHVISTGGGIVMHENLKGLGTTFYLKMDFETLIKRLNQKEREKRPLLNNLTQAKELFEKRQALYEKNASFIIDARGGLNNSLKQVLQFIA

Row | Compound | IC50 ([1]; MtSK) | inhibition mode with respect to shikimate (SKM) ([1]; MtSK) | inhibition mode with respect to ATP ([1]; MtSK) | Ki [1, 4] | Ki [1, 5] | IC50 [2] | inhibition mode with respect to shikimate (SKM) [2] | inhibition mode with respect to ATP [2] | Ki [2, 6] | Ki [2, 7] | also measured
1 | 5-((E)-(4-((E)-(2-benzyl-8-hydroxy-6-sulfonatonaphthalen-1-yl)diazenyl)phenyl)diazenyl)-2-hydroxybenzoate [Compound 7] | 2770 nM | Competitive | Competitive | 730 nM | 1040 nM | 6100 nM | Competitive | Competitive | 1970 nM | 2420 nM | 
2 | 5-((E)-(4-((E)-(4-((E)-(2,4-diamino-5-methylphenyl)diazenyl)-3-methyl-2-sulfonatophenyl)diazenyl)phenyl)diazenyl)-2-hydroxybenzoate [Compound 6] | 1500 nM | Competitive | Competitive | 320 nM | 660 nM | 4780 nM | Competitive | Competitive | 1050 nM | 1730 nM | 
3 | O=C1c2cccc3cc([N+](=O)[O-])cc(c23)C(=O)N1c1ccc(S(=O)(=O)Nc2ccc(C(F)(F)F)cc2)cc1 [Compound 1, 4-(5-nitro-1,3-dioxo-1H-benzo[de]isoquinolin-2(3H)-yl)-N-(4-(trifluoromethyl)phenyl)benzenesulfonamide] | > 50000 nM |  |  |  |  | 79300 nM |  |  |  |  | 
4 | O=C(NNC(=O)C1c2ccccc2Oc2ccccc21)c1cccc(F)c1 [Compound 3, N′-(3-fluorobenzoyl)-9H-xanthene-9-carbohydrazide] | > 50000 nM |  |  |  |  | 40200 nM |  |  |  |  | 
5 | N=C(NO)c1ccc(Oc2cc(Cl)cc(Cl)c2)c([N+](=O)[O-])c1 [Compound 4, (Z)-4-(3,5-dichlorophenoxy)-N′-hydroxy-3-nitrobenzimidamide] | > 50000 nM |  |  |  |  | 89800 nM |  |  |  |  | 
6 | O=C(Nc1ccc2c(O)cc(S(=O)(=O)O)cc2c1)Nc1ccc2c(O)cc(S(=O)(=O)O)cc2c1 [Compound 5, 7,7′-carbonylbis(azanediyl)bis(4-hydroxynaphthalene-2-sulfonate)] | 2760 nM | Noncompetitive | Competitive | 350 nM | 2670 nM | ≤ 10000 nM and 7770 nM | Noncompetitive | Competitive | 1740 nM | 12800 nM | inhibition mode with respect to shikimate (SKM) ([1]; MtSK, listed as NSC45174): noncompetitive; inhibition mode with respect to shikimate (SKM) ([2]; listed as NSC45174): noncompetitive
7 | Cc1cc(/N=N/c2ccc(/N=N/c3ccc(/N=N/c4ccc(O)c(C(=O)O)c4)cc3)c(S(=O)(=O)O)c2C)c(N)cc1N [Compound 6, 5-((E)-(4-((E)-(4-((E)-(2,4-diamino-5-methylphenyl)diazenyl)-3-methyl-2-sulfonatophenyl)diazenyl)phenyl)diazenyl)-2-hydroxybenzoate] | ≤ 10000 nM |  |  |  |  | ≤ 10000 nM |  |  |  |  | 
8 | O=C(O)c1cc(/N=N/c2ccc(/N=N/c3c(Cc4ccccc4)ccc4cc(S(=O)(=O)O)cc(O)c34)cc2)ccc1O [Compound 7, 5-((E)-(4-((E)-(2-benzyl-8-hydroxy-6-sulfonatonaphthalen-1-yl)diazenyl)phenyl)diazenyl)-2-hydroxybenzoate] | ≤ 10000 nM |  |  |  |  | ≤ 10000 nM |  |  |  |  | 
9 | Nc1ccc2c(O)c(/N=N/c3ccc4c(O)cc(S(=O)(=O)O)cc4c3)c(S(=O)(=O)O)cc2c1 [Compound 8, (E)-7-amino-4-hydroxy-3-((5-hydroxy-7-sulfonatonaphthalen-2-yl)diazenyl)naphthalene-2-sulfonate] | 1550 nM | Competitive | Competitive | 240 nM | 610 nM | 4910 nM | Competitive | Competitive | 1850 nM | 1820 nM | inhibition mode with respect to shikimate (SKM) ([1]; MtSK, listed as NSC136535): competitive; inhibition mode with respect to shikimate (SKM) ([2]; listed as NSC136535): competitive
10 | N#C/C(=C/c1ccc(O)c(O)c1)C(=O)c1ccc(O)c(O)c1 [Compound 9, (Z)-2-(3,4-dihydroxybenzoyl)-3-(3,4-dihydroxyphenyl)acrylonitrile, reference compound] |  | Noncompetitive | Competitive |  |  | 2300 nM | Noncompetitive | Competitive | 3080 nM | 5350 nM | inhibition mode with respect to shikimate (SKM) ([1]; MtSK, listed as AG538): noncompetitive; inhibitory effect against shikimate kinase (in words) ([1]; MtSK): showed inhibitory results; inhibition mode with respect to shikimate (SKM) ([2]; listed as AG538): noncompetitive; inhibitory effect against shikimate kinase (in words) [2]: showed inhibitory results
11 | O=C1Nc2ccc(I)cc2/C1=C/c1cc(Br)c(O)c(Br)c1 [Compound 10, (Z)-3-(3,5-dibromo-4-hydroxybenzylidene)-5-iodoindolin-2-one, reference compound] |  |  |  |  |  | 31400 nM |  |  |  |  | IC50 [1]: 29600 nM; inhibitory effect against shikimate kinase (in words) ([1]; MtSK): showed inhibitory results; inhibitory effect against shikimate kinase (in words) [2]: showed inhibitory results
12 | CC1CCc2c(sc(NC(=O)CSc3nc4ccccc4s3)c2C#N)C1 (centres unmarked) [HTS11955, 2-(1,3-benzothiazol-2-ylsulfanyl)-N-(3-cyano-6-methyl-4,5,6,7-tetrahydro-1-benzothiophen-2-yl)acetamide] |  |  |  |  |  |  |  |  |  |  | IC50 [3]: 61000 nM
13 | CSc1c(C#N)c(N)nc(SCC(=O)c2cccc([N+](=O)[O-])c2)c1C#N [RH00573, 2-amino-4-methylsulfanyl-6-[2-(3-nitrophenyl)-2-oxoethyl]sulfanylpyridine-3,5-dicarbonitrile] |  |  |  |  |  |  |  |  |  |  | IC50 [3]: 84400 nM
